Earlier results in article PMC11938273 (Journal of Chemical Information and Modeling, 2025).
Structures can show the parent of a compound that is named as a salt.

Conditions: in vivo; cited from earlier work
For `COc1cc([C@@H]2c3cc4c(cc3[C@@H](O[C@@H]3O[C@@H]5CO[C@@H](C)O[C@H]5[C@H](O)[C@H]3O)[C@H]3COC(=O)[C@H]23)OCO4)cc(OC)c1O` [Etoposide, (5S,5aR,8aR,9R)-9-(4-Hydroxy-3,5-dimethoxyphenyl)-8-oxo-5,5a,6,8,8a,9-hexahydrofuro[3′,4′:6,7]naphtho[2,3-d][1,3]dioxol-5-yl 4,6-O-[(1R)-ethylidene]-β-D-glucopyranoside], the CNS status is listed as “Efflux transporter substrate”. In the case of `Cc1ccc([C@H]2C[C@@H]3CC[C@H]([C@H]2C(=O)OCCF)N3C/C=C/I)cc1` [FE-PE2i, 2-fluoroethyl (1R,2S,3S,5S)-8-((E)-3-iodoallyl)-3-(p-tolyl)-8-azabicyclo[3.2.1]octane-2-carboxylate], the CNS status is listed as “Positive”. In the case of `CCSC(=O)c1c(CC)nc(-c2ccccc2)c(C(=O)OCC[18F])c1CC` [FE@SUPPY, 5-(2-[18F]fluoroethyl)2,4-diethyl-3-(ethylsulfanylcarbonyl)-6-phenylpyridine-5-carboxylate], the CNS status is listed as “Negative”. In the case of `C=CCN1CCC[C@H]1CNC(=O)c1cc(CCCF)cc(OC)c1OC` [Fallypride, (S)-N-((1-allylpyrrolidin-2-yl)methyl)-1-(5-(3-fluoropropyl)-2,3-dimethoxyphenyl)ethenamine], the CNS status is given as “Positive”. In the case of `CN1Cc2c(C(=O)OCCF)ncn2-c2ccc(F)cc2C1=O` [Fluoroethylflumazenil (FFMZ), 2-Fluoroethyl 8-fluoro-5-methyl-6-oxo-5,6-dihydro-4H-benzo [f]imidazo[1,5-a] [1, 4]diazepine-3-carboxylate], the CNS status is listed as “Positive”. In the case of `O=[N+]([O-])c1nccn1CC(O)CF` (stereo not drawn) [Fluoromisonidazole (FMISO), 1-Fluoro-3-(2-nitro-1H-imidazol-1-yl)propan-2-ol], the CNS status is given as “Positive”. In the case of `CNc1ccc(-c2nc3ccc(O)cc3s2)cc1F` [Flutemetamol, 2-(3-fluoro-4-(methylamino)phenyl)benzo[d]thiazol-6-ol], the CNS status is given as “Positive”. For `C[C@]12CC[C@@H]3c4ccc(O)cc4C[C@@H](CCCCCCCCC[S+]([O-])CCCC(F)(F)C(F)(F)F)[C@H]3[C@@H]1CC[C@@H]2O` (stereo partly drawn) [Fulvestrant, (7α,17β)-7-{9-[(4,4,5,5,5-Pentafluoropentyl)sulfinyl]nonyl}estra-1(10),2,4-triene-3,17-diol], the CNS status is given as “Negative”. For `COC(=O)N1CCN(C(=O)Cc2ccc(Cl)c(Cl)c2)[C@H](CN2CCCC2)C1` [GR89696, (R)-methyl 4-(2-(3,4-dichlorophenyl)acetyl)-3-(pyrrolidin-1-ylmethyl)piperazine-1-carboxylate], the CNS status is given as “Positive”. For `CCC1=C(C)CN(C(=O)NCCc2ccc(S(=O)(=O)NC(=O)N[C@H]3CC[C@H](C)CC3)cc2)C1=O` [Glimepiride, 3-Ethyl-4-methyl-N-[2-(4-{[(trans-4-methylcyclohexyl)carbamoyl]sulfamoyl}phenyl)ethyl]-2-oxo-2,5-dihydro-1H-pyrrole-1-carboxamide], the CNS status is given as “Negative”. For `CCOc1ccc(-c2nc3cc(-c4nc5cc(N6CCN(C)CC6)ccc5[nH]4)ccc3[nH]2)cc1` [Hoechst 33342, 2′-(4-Ethoxyphenyl)-5-(4-methyl-1-piperazinyl)-1H,1′H-2,5′-bibenzimidazole], the CNS status is listed as “Efflux transporter substrate”. For `COC(=O)[C@H]1[C@@H](c2ccc(I)cc2)C[C@@H]2CC[C@H]1N2C/C=C/I` [IPCIT, (1R,2S,3S,5S)-methyl 8-((E)-3-iodoallyl)-3-(4-iodophenyl)-8-azabicyclo[3.2.1]octane-2-carboxylate], the CNS status is given as “Positive”. For `CCC(C)n1ncn(-c2ccc(N3CCN(c4ccc(OC[C@H]5CO[C@](Cn6cncn6)(c6ccc(Cl)cc6Cl)O5)cc4)CC3)cc2)c1=O` (stereo partly drawn) [Itraconazole, 2-sec-Butyl-4-{4-[4-(4-{[(2R,4S)-2-(2,4-dichlorophenyl)-2-(1H-1,2,4-triazol-1-ylmethyl)-1,3-dioxolan-4-yl]methoxy}phenyl)-1-piperazinyl]phenyl}-2,4-dihydro-3H-1,2,4-triazol-3-one], the CNS status is listed as “Negative”. In the case of `COC(=O)c1cnc2n1CCc1ccccc1C2=C1CCN(CCc2ccc(OCc3ccc4ccccc4n3)cc2)CC1` [Laniquidar, methyl 11-(1-(4-(quinolin-2-ylmethoxy)phenethyl)piperidin-4-ylidene)-6,11-dihydro-5H-benzo[d]imidazo[1,2-a]azepine-3-carboxylate], the CNS status is listed as “Efflux transporter substrate”. For `CC#CCn1c(N2CCC[C@@H](N)C2)nc2c1c(=O)n(Cc1nc(C)c3ccccc3n1)c(=O)n2C` [Linagliptin, 8-(3-Amino-1-piperidinyl)-7-(2-butyn-1-yl)-3-methyl-1-[(4-methyl-2-quinazolinyl)methyl]-3,7-dihydro-1H-purine-2,6-dione], the CNS status is listed as “Negative”. In the case of `CNCC(O)CCN1c2ccccc2N(c2ccccc2)S1(=O)=O` (stereo not drawn) [Me@HAPTHI, 4-(2,2-Dioxido-3-phenyl-2,1,3-benzothiadiazol-1(3H)-yl)-1-(methylamino)-2-butanol], the CNS status is listed as “Negative”. For `O=S(=O)(O)CCS` [Mesna (Coenzyme M), 2-mercaptoethane sulfonic acid], the CNS status is given as “Negative”. In the case of `COC(=O)c1cncn1[C@H](C)c1ccccc1` [Metomidate, (R)-methyl 1-(1-phenylethyl)-1H-imidazole-5-carboxylate], the CNS status is listed as “Positive”. In the case of `Cn1c2c(c3ccccc31)C[C@@]1(O)C3Cc4ccc(O)c5c4C1(CCN3CC1CC1)[C@H]2O5` (stereo partly drawn) [N-Methylnaltrinidole, (8aS,14bR)-7-(cyclopropylmethyl)-14-methyl-5,6,7,8,8a,9,14, 14b-octahydro-4,8-methanobenzofuro[2,3-a]pyrido [4,3-b]carbazole-1,8a-diol], the CNS status is given as “Positive”. In the case of `Cc1c(O)cccc1C(=O)N[C@@H](CSc1ccccc1)[C@H](O)CN1C[C@H]2CCCC[C@H]2C[C@H]1C(=O)NC(C)(C)C` [Nelfinavir, (3S,4aS,8aS)-2-[(2R,3R)-2-Hydroxy-3-[(3-hydroxy-2-methylbenzoyl)amino]-4-(phenylsulfanyl)butyl]-N-(2-methyl-2-propanyl)decahydro3-isoquinolinecarboxamide], the CNS status is listed as “Efflux transporter substrate”. In the case of `CN(C)C(=O)Oc1cccc([N+](C)(C)C)c1` [Neostigmine, 3-[(Dimethylcarbamoyl)oxy]-N,N,N-trimethylanilinium], the CNS status is given as “Negative”. In the case of `COC(=O)C1=C(C)NC(C)=C(C(=O)OCCN(C)Cc2ccccc2)C1c1cccc([N+](=O)[O-])c1` (stereo not drawn) [Nicardipine, 2-[Benzyl(methyl)amino]ethyl methyl 2,6-dimethyl-4-(3-nitrophenyl)-1,4-dihydro-3,5-pyridinedicarboxylate], the CNS status is given as “Efflux transporter substrate”. In the case of `Fc1ncccc1OCC1C=CCN1` (stereo not drawn) [Nifene, 3-((2,5-dihydro-1H-pyrrol-2-yl)methoxy)-2-fluoropyridine], the CNS status is listed as “Positive”. For `Cc1nccn1CC1CCc2c(c3ccccc3n2C)C1=O` (stereo not drawn) [Ondansetron, 9-Methyl-3-[(2-methyl-1H-imidazol-1-yl)methyl]-1,2,3,9-tetrahydro-4H-carbazol-4-one], the CNS status is listed as “Efflux transporter substrate”. For `COC(=O)[C@H]1[C@@H](c2ccc(C)cc2)C[C@@H]2CC[C@H]1N2C/C=C/I` [PE2i, (1R,2S,3S,5S)-methyl 8-((E)-3-iodoallyl)-3-(p-tolyl)-8-azabicyclo[3.2.1]octane-2-carboxylate], the CNS status is given as “Positive”. For `CCC(C)N(C)C(=O)c1cc2ccccc2c(-c2ccccc2Cl)n1` (stereo not drawn) [PK11195, N-(sec-butyl)-1-(2-chlorophenyl)-N-methylisoquinoline3-carboxamide], the CNS status is listed as “Positive”. For `CCC(=O)OC1CCNCC1` [PMP, piperidin-4-yl propionate], the CNS status is listed as “Positive”. For `CCC(=O)NS(=O)(=O)c1ccc(-c2c(-c3ccccc3)noc2C)cc1` [Parecoxib, N-{[4-(5-Methyl-3-phenyl-1,2-oxazol4-yl)phenyl]sulfonyl}propanamide], the CNS status is given as “Negative”. For `CNC(=O)Oc1ccc2c(c1)[C@]1(C)CCN(C)[C@@H]1N2C` [Physostigmine, (3aS,8aR)-1,3a,8-trimethyl-1,2,3,3a,8,8a-hexahydropyrrolo[2,3-b]indol-5-yl methylcarbamate], the CNS status is given as “Positive”. For `CN/C(=C\[N+](=O)[O-])NCCSCc1ccc(CN(C)C)o1` [Ranitidine, (E)-N-{2-[({5-[(Dimethylamino)methyl]-2-furyl}methyl)sulfanyl]ethyl}-N′-methyl-2-nitro-1,1-ethenediamine], the CNS status is listed as “Efflux transporter substrate”. For `COC(=O)c1ccccc1-c1c2ccc(=N)cc-2oc2cc(N)ccc12` [Rhodamine 123, 6-Amino-9-[2-(methoxycarbonyl)phenyl]-3H-xanthen-3-iminium], the CNS status is listed as “Efflux transporter substrate”. In the case of `CC(C)c1nc(CN(C)C(=O)N[C@H](C(=O)N[C@@H](Cc2ccccc2)C[C@H](O)[C@H](Cc2ccccc2)NC(=O)OCc2cncs2)C(C)C)cs1` [Ritonavir, (1E,2S)-N-[(2S,4S,5S)-4-Hydroxy-5-{(E)-[hydroxy(1,3-thiazol-5-ylmethoxy)methylene]amino}-1,6-diphenyl-2-hexanyl]-2-[(E)-(hydroxy{[(2-isopropyl-1,3-thiazol-4-yl)methyl](methyl)amino}methylene)amino]-3-methylbutanimidic acid], the CNS status is given as “Efflux transporter substrate”. In the case of `CS(=O)(=O)c1ccc(C2=C(c3ccccc3)C(=O)OC2)cc1` [Rofecoxib, 4-[4-(Methylsulfonyl)phenyl]-3-phenyl2(5H)-furanone], the CNS status is given as “Negative”. In the case of `COc1ccc(C2CNC(=O)C2)cc1OC1CCCC1` (stereo not drawn) [Rolipram, 4-(3-(Cyclopentyloxy)-4-methoxyphenyl)pyrrolidin-2-one], the CNS status is given as “Positive”. In the case of `CC[C@H]1OC(=O)[C@H](C)[C@@H](O[C@H]2C[C@@](C)(OC)[C@@H](O)[C@H](C)O2)[C@H](C)[C@@H](O[C@@H]2O[C@H](C)C[C@H](N(C)C)[C@H]2O)[C@](C)(O)C[C@@H](C)/C(=N\OCOCCOC)[C@H](C)[C@@H](O)[C@]1(C)O` [Roxithromycin], the CNS status is given as “Negative”. In the case of `CN1CCc2cc(Cl)c(O)cc2[C@@H](c2ccccc2)C1` [SCH-23390 hydrochloride, (R)-8-chloro-3-methyl-5-phenyl-2,3,4,5-tetrahydro1H-benzo[d]azepin-7-ol], the CNS status is given as “Positive”.
